These results are taken from patent US12029724B2, “Method for inhibiting tumor growth” (Eisai R&D Management Co., Ltd., priority 2016, dated 2024).

Where a name gives a salt, the structure may show the parent alone.

The test system of test [1] is OMC9 sarcoma (leiomyosarcoma). Nature of the test: anti-tumor activity, OMC9 xenograft in nude mice. The test is classed as in vivo, human. The following applies: OMC9 model, BALB/c nu/nu mice, i.v. day 0 and day 7, start tumor volume 150 mm^3, log RTV, day 7-day 35. From the text: (§1) Cancer cell lines were purchased from the Riken Bioresource Center (RBC, Japan (Ibaraki)), American Type Culture Collection (ATCC, USA (Manassas, Va.)), Deutsche Sammlung von Mikroorganismen and Zellkulturen GmbH (German Collection of Microorganisms and Cell Cultures GmbH: DSMZ, Germany (Braunschweig)), Health Science Research Resource Bank (HSRRB, Japan (Osaka)), and the DS Pharma Biomedical Co., Ltd. (DS-Pharma, Japan (Osaka)), and were kindly donated by the Kyushu Cancer Center, Kagoshima University, and the Cell Resource Center for Biomedical Research of the Institute of Development, Aging, and Cancer of Tohoku University.
(§2) In the tables, the cancer cell lines to which “*” is added in the “acclimation” column were obtained from grown tumors which were formed by subcutaneously inoculating each cancer cell line to a mouse in advance.
(§3) On the initial day of inoculation, the cancer cells were harvested by trypsinization and were washed and suspended using the particular medium. Some of the harvested cancer cells were then mixed with GelTrex (Gibco, #12760-021 or A14132-02) at 1:1. […]
(§4) The tumor size was measured over time with a caliper, and the tumor volume was determined based on the following calculation formula. tumor volume (mm^3)=length (mm)×square of width (mm^2)×½ […]
Background: A xenograft is tissue or cells of one species grown in another, often human tumour cells in immunodeficient mice.

In test [2] the test system is MES-SA sarcoma (leiomyosarcoma). Kind of test: anti-tumor activity, MES-SA xenograft in nude mice. The format is in vivo, human.
From the text: as §1, §2, §3, §4

In test [3] the test system is SK-UT-1 sarcoma (leiomyosarcoma). Nature of the test: anti-tumor activity, SK-UT-1 xenograft in nude mice. The following applies: day 3-day 10. The test is classed as in vivo, human.
From the text: as §1, §2, §3, §4

The test system of test [4] is SK-LMS-1 sarcoma (leiomyosarcoma). Kind of test: anti-tumor activity, SK-LMS-1 xenograft in nude mice. The test is classed as in vivo, human. To be noted: SK-LMS-1 model, i.v. day 0 and day 7, start tumor volume 290 mm^3, log RTV, day 2-day 7.
From the text: as §1, §2, §3, §4

In test [5] the test system is A673 sarcoma (Ewing sarcoma). Nature of the test: anti-tumor activity, A673 xenograft in nude mice. The test is classed as in vivo, human. To be noted: A673 model, i.v. day 0 and day 7, start tumor volume 220 mm^3, log RTV, day 4-day 18.
From the text: as §1, §2, §3, §4

For test [6], the system named is MFE-280 uterine cancer (endometrial cancer). Kind of test: anti-tumor activity, MFE-280 xenograft in nude mice. The format is in vivo, human. To be noted: MFE-280 model, i.v. day 0 and day 7, start tumor volume 200 mm^3, log RTV, day 4-day 14.
From the text: as §1, §2, §3, §4

In test [7] the test system is MFE-296 uterine cancer (endometrial cancer). Kind of test: anti-tumor activity, MFE-296 xenograft in nude mice. The test is classed as in vivo, human. The following applies: MFE-296 model, i.v. day 0 and day 7, start tumor volume 200 mm^3, log RTV, day 4-day 14.
From the text: as §1, §2, §3, §4

Test [8] concerns HEC-151 uterine cancer (endometrial cancer). Nature of the test: anti-tumor activity, HEC-151 xenograft in nude mice. The following applies: HEC-151 model, i.v. day 0 and day 7, start tumor volume 220 mm^3, log RTV, day 3-day 14. The test is classed as in vivo, human.
From the text: as §1, §2, §3, §4

Test [9] concerns ECC-1 uterine cancer (endometrial cancer). Kind of test: anti-tumor activity, ECC-1 xenograft in nude mice. The format is in vivo, human. To be noted: ECC-1 model, i.v. day 0 and day 7, start tumor volume 160 mm^3, log RTV, day 4-day 19.
From the text: as §1, §2, §3, §4

Test [10] deals with KB (HeLa) uterine cancer (cervical cancer). Nature of the test: anti-tumor activity, KB (HeLa) xenograft in nude mice. The format is in vivo, human. The following applies: KB (HeLa) model, i.v. day 0 and day 7, start tumor volume 150 mm^3, log RTV, day 7-day 14.
From the text: as §1, §2
The KB cells indicated as a cancer cell line in Table 2 were originally thought to be derived from an epithelial cancer. […] In addition, ITS-G supplement (Wako Pure Chemical Industries, Ltd., #090-06741) was used as the ITS. […]
as §4

For test [11], the system named is AsPC-1 pancreatic cancer. Nature of the test: anti-tumor activity, AsPC-1 xenograft in nude mice. The format is in vivo, human. To be noted: AsPC-1 model, i.v. day 0 and day 7, start tumor volume 380 mm^3, log RTV, day 3-day 35.
From the text: as §1, §2, §3, §4

Test [12] concerns BXPC-3 pancreatic cancer. Nature of the test: anti-tumor activity, BXPC-3 xenograft in nude mice. The test is classed as in vivo, human. The following applies: BXPC-3 model, i.v. day 0 and day 7, start tumor volume 120 mm^3, log RTV, day 7-day 21.
From the text: as §1, §2, §3, §4

Test [13] relates to KP-1 pancreatic cancer. Nature of the test: anti-tumor activity, KP-1 xenograft in nude mice. The format is in vivo, human. The following applies: KP-1 model, i.v. day 0 and day 7, start tumor volume 200 mm^3, log RTV, day 3-day 14.
From the text: as §1, §2
(§5) On the initial day of inoculation, the cancer cells were harvested by trypsinization and were washed and suspended using the particular medium. Some of the harvested cancer cells were then mixed with GelTrex (Gibco, #12760-021 or A14132-02) at 1:1. Using a 26-gauge syringe needle, these cells were inoculated at a volume of 0.1 mL into the vicinity of the right axillary region of mice (BALB/c nu/nu). […]

In test [14] the test system is K1 thyroid cancer. Nature of the test: anti-tumor activity, K1 xenograft in nude mice. The test is classed as in vivo, human. The following applies: K1 model, i.v. day 0 and day 7, start tumor volume 390 mm^3, log RTV, day 3-day 17.
From the text: as §1, §2, §3, §4

Test [15] deals with U251MG brain tumor (glioblastoma). Nature of the test: anti-tumor activity, U251MG xenograft in nude mice. The test is classed as in vivo, human. To be noted: U251MG model, i.v. day 0 and day 7, start tumor volume 150 mm^3, log RTV, day 5-day 23.
From the text: as §1, §2, §5

Test [16] relates to PLC/PRF/5 liver cancer (hepatocellular carcinoma). Kind of test: anti-tumor activity, PLC/PRF/5 xenograft in nude mice. The format is in vivo, human. The following applies: PLC/PRF/5 model, i.v. day 0 and day 7, start tumor volume 180 mm^3, log RTV, day 4-day 18.
From the text: as §1, §2, §3, §4

In test [17] the test system is Hs746T stomach cancer. Nature of the test: anti-tumor activity, Hs746T xenograft in nude mice. The following applies: Hs746T model, i.v. day 0 and day 7, start tumor volume 180 mm^3, log RTV, day 4-day 11. The format is in vivo, human.
From the text: as §1, §2, §3, §4

Test [18] deals with UM-UC-3 urothelial cancer (bladder cancer). Nature of the test: anti-tumor activity, UM-UC-3 xenograft in nude mice. The test is classed as in vivo, human.
From the text: as §1, §2, §3, §4

The subject of test [19] is human xenograft models. Nature of the test: anti-tumor activity, summary over the 18 human xenograft models. The format is in vivo. The following applies: in all 18 human xenograft models, RM-ANOVA using log RTV, P<0.05.
From the text: as §1, §2, §3, §4

`C=C1C[C@@H]2CC[C@@]34C[C@H]5O[C@H]6[C@@H](O3)[C@H]3O[C@H](CC[C@@H]3O[C@H]6[C@H]5O4)CC(=O)C[C@@H]3[C@@H](OC)[C@@H](C[C@H](O)CN)O[C@H]3C[C@H]3O[C@@H](CC[C@@H]1O2)C[C@@H](C)C3=C` [E7389, eribulin mesylate]: the “RM-ANOVA E7389 vs vehicle” value in test [1] is reported as “Yes 1”; in test [2] (MES-SA model (Table 2 conditions), i.v. day 0 and day 7, start tumor volume 190 mm^3, log RTV, day 4-day 18), “Yes 1”; in [2] (MES-SA model (Table 3 conditions), i.v. day 0 and day 7, start tumor volume 420 mm^3, log RTV, day 3-day 7), “Yes 1”; in test [3] (SK-UT-1 model (Table 2 conditions), i.v. day 0 and day 7, start tumor volume 260 mm^3, log RTV), “Yes 1”; in test [3] (SK-UT-1 model (Table 3 conditions), i.v. day 0 and day 7, start tumor volume 290 mm^3, log RTV) it was “Yes 1”; in [4], “Yes 1”. For the same compound, the “RM-ANOVA E7389 vs vehicle” value in test [5], in test [6], in [7], in [8], in [9] and in [10] was “Yes 1” throughout. The “RM-ANOVA E7389 vs vehicle” value in test [11], in test [12], in test [13], in test [14], in test [15] and in test [16] was “Yes 1” throughout. The “RM-ANOVA E7389 vs vehicle” value in test [17] is “Yes 1”; in test [18] (UM-UC-3 model (Table 2 conditions), i.v. day 0 and day 7, start tumor volume 230 mm^3, log RTV, day 3-day 10), “Yes 1”; in test [18] (UM-UC-3 model (Table 3 conditions), i.v. day 0 and day 7, start tumor volume 190 mm^3, log RTV, day 3-day 14), “Yes 1”. In addition, in test [19], the “anti-tumor activity compared to the vehicle group” value is “statistically significant”.
